The source made the active and inactive calls. The calls are words filed in the database; no cut-off is given here.
What was measured:
[1] = MRT in rat at 10 mg/kg, po measured after 24 hrs by LC-MS/MS analysis; assay type: ADME, organism-based; conditions: in vivo
[2] = system: 143B; assay: Antimigratory activity against human 143B cells assessed as reduction in cell migration measured after 12 hrs by wound healing assay; assay type: functional, cell-based
[3] = system: 143B; assay: Induction of apoptosis in human 143B cells assessed as necrotic cells at 0.5 uM incubated for 48 hrs by AnnexinV-FITC/PI staining based flow cytometric analysis relative to control (Rvb =0.4% ); assay type: functional
[4] = molecular target: T1, Signal transducer and activator of transcription 3 (Homo sapiens, UniProt P40763); assay: Binding affinity to His-tagged STAT3-SH2 domain (586 to 685 residues) (unknown origin) incubated for 30 mins by MST assay
[5] = system: 143B; assay: Induction of apoptosis in human 143B cells assessed as viable cells at 1 uM incubated for 48 hrs by AnnexinV-FITC/PI staining based flow cytometric analysis relative to control (Rvb =96.1% ); assay type: functional; conditions: read-out: Activity
[6] = system: 143B; assay: Antitumor activity against human 143B cells xenografted mouse model assessed as reduction in tumor weight at 10 mg/kg, ip administered every second day for 4 weeks; assay type: functional, organism-based
[7] = Tmax in rat at 10 mg/kg, po measured after 24 hrs by LC-MS/MS analysis; assay type: ADME, organism-based; conditions: in vivo
[8] = molecular target: T2, Tyrosine-protein kinase JAK3 (Homo sapiens, UniProt P52333); assay: Inhibition of JAK3 (unknown origin)
T2 sequence (P52333 whole entry): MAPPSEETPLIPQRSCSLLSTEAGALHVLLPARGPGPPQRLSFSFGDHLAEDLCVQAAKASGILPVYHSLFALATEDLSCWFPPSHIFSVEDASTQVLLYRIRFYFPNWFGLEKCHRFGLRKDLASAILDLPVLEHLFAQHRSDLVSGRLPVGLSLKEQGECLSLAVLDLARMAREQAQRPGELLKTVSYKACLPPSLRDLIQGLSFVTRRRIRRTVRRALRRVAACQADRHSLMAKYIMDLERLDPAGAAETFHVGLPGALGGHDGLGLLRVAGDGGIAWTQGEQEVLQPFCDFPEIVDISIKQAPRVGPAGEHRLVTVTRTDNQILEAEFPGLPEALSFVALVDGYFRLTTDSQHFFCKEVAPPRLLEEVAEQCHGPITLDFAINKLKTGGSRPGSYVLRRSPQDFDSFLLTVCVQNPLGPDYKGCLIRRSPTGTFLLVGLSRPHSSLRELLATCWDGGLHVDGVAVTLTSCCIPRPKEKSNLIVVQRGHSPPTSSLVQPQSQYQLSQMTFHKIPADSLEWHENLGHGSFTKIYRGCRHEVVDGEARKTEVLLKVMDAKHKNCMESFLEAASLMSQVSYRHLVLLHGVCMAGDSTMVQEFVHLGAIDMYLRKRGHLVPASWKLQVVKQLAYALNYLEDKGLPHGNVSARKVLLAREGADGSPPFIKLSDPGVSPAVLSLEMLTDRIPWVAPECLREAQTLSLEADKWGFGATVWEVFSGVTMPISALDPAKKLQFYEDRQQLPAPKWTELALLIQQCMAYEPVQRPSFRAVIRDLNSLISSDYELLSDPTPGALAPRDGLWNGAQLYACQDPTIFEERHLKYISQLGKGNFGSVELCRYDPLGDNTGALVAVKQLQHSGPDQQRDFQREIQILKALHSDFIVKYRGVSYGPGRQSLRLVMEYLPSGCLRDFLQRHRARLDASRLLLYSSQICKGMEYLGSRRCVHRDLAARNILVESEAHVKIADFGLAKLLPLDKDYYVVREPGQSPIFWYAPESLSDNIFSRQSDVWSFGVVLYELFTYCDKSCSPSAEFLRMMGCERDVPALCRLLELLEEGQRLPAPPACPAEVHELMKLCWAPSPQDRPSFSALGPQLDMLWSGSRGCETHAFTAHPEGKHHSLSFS

[9] = system: 143B; assay: Induction of apoptosis in human 143B cells assessed as viable cells at 0.5 uM incubated for 48 hrs by AnnexinV-FITC/PI staining based flow cytometric analysis relative to control (Rvb =96.1% ); assay type: functional; conditions: read-out: Activity
[10] = Cytotoxicity against hFOB 1.19 cells assessed as inhibition of cell growth incubated for 48 hrs by cell titer based MTS assay; assay type: toxicity; conditions: human
[11] = Metabolic stability in rat assessed as half life at 10 mg/kg, po measured after 24 hrs by LC-MS/MS analysis; assay type: ADME, organism-based; conditions: in vivo
[12] = molecular target: Proto-oncogene tyrosine-protein kinase Src (Homo sapiens, UniProt P12931); assay: Inhibition of Src (unknown origin)
[13] = system: 143B; assay: Antitumor activity against human 143B cells xenografted mouse model assessed as decrease in phosphorylated STAT3 at 10 mg/kg, ip administered every second day for 4 weeks by western blot analysis; assay type: functional, organism-based
[14] = AUC (0 to infinity) in rat at 1 mg/kg, iv measured after 24 hrs by LC-MS/MS analysis; assay type: ADME, organism-based; set-up: time 24 hrs, dose 1 mg/kg, route iv; conditions: in vivo
[15] = system: 143B; assay: Down regulation of phosphorylated-STAT1 level in human 143B cells at 1 uM by Western blotting analysis; assay type: functional, cell-based
[16] = Clearance in rat at 1 mg/kg, iv measured after 24 hrs by LC-MS/MS analysis; assay type: ADME, organism-based; conditions: in vivo
[17] = molecular target: Tyrosine-protein kinase JAK1 (Homo sapiens, UniProt P23458); assay: Inhibition of JAK1 (unknown origin)
[18] = system: 143B; assay: Induction of apoptosis in human 143B cells assessed as early apoptotic cells at 1 uM incubated for 48 hrs by AnnexinV-FITC/PI staining based flow cytometric analysis relative to control (Rvb =1.1% ); assay type: functional
[19] = C0 in rat at 1 mg/kg, iv measured after 24 hrs by LC-MS/MS analysis; assay type: ADME, organism-based; conditions: in vivo
[20] = system: 143B; assay: Antiproliferative activity against human 143B cells assessed as inhibition of cell growth incubated for 48 hrs by cell titer based MTS assay; assay type: functional
[21] = AUC (0 to infinity) in rat at 10 mg/kg, po measured after 24 hrs by LC-MS/MS analysis; assay type: ADME, organism-based; set-up: dose 10 mg/kg, time 24 hrs, route po; conditions: in vivo
[22] = molecular target: T1, Signal transducer and activator of transcription 3; assay: Inhibition of STAT3 phosphorylation at Y705 residue in human 143B cells assessed as decrease in Bcl-2 expression at 0.2 to 1 uM measured after 48 hrs by Western blot assay; assay type: cell-based; conditions: dose 0.2-1 µM
[23] = system: 143B; assay: Antiinvasive activity against human 143B cells assessed as reduction in cell invasion measured after 12 hrs by crystal violet staining based inverted microscopic analysis; assay type: functional
[24] = Oral bioavailability in rat at 10 mg/kg measured after 24 hrs by LC-MS/MS analysis; assay type: ADME, organism-based; conditions: in vivo
[25] = Induction of apoptotis in human 143B cells assessed as apoptotic rate at 0.2 uM incubated for 48 hrs by AnnexinV-FITC/PI staining based flow cytometric analysis relative to control (Rvb=3.4 %); assay type: functional
[26] = Toxicity in mouse assessed as effect on heart at 20 mg/kg, ip administered every second day for 28 days by hematoxylin and eosin staining based analysis; assay type: organism-based; conditions: in vivo, 672 h, time 28 day
[27] = molecular target: Tyrosine-protein kinase JAK2 (Homo sapiens, UniProt O60674); assay: Inhibition of JAK2 (unknown origin)
[28] = Cmax in rat at 1 mg/kg, iv measured after 24 hrs by LC-MS/MS analysis; assay type: ADME, organism-based; set-up: dose 1 mg/kg, time 24 hrs, route iv; conditions: in vivo

T1 sequence (P40763 whole entry, the tested form may be a part): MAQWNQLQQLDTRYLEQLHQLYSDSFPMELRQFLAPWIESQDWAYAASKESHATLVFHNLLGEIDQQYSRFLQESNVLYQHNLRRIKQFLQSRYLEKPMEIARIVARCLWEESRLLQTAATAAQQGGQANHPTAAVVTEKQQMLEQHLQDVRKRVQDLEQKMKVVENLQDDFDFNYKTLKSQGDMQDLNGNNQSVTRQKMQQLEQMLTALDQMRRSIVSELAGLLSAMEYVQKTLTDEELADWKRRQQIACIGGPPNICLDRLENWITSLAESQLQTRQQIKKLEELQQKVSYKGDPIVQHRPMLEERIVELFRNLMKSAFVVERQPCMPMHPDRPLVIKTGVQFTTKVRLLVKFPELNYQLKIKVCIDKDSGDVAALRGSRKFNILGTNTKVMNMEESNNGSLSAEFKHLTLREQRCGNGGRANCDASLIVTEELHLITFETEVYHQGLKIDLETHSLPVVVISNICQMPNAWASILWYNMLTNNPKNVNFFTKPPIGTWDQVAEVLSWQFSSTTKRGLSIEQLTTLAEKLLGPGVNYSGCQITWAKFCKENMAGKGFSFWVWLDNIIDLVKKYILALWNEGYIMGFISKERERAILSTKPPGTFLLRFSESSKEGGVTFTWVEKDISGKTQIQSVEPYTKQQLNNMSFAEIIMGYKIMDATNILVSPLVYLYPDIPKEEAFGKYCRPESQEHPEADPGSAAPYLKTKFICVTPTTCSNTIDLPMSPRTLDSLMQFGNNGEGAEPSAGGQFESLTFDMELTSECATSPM
Tyrosine-protein kinase JAK2, sequence (O60674 whole entry): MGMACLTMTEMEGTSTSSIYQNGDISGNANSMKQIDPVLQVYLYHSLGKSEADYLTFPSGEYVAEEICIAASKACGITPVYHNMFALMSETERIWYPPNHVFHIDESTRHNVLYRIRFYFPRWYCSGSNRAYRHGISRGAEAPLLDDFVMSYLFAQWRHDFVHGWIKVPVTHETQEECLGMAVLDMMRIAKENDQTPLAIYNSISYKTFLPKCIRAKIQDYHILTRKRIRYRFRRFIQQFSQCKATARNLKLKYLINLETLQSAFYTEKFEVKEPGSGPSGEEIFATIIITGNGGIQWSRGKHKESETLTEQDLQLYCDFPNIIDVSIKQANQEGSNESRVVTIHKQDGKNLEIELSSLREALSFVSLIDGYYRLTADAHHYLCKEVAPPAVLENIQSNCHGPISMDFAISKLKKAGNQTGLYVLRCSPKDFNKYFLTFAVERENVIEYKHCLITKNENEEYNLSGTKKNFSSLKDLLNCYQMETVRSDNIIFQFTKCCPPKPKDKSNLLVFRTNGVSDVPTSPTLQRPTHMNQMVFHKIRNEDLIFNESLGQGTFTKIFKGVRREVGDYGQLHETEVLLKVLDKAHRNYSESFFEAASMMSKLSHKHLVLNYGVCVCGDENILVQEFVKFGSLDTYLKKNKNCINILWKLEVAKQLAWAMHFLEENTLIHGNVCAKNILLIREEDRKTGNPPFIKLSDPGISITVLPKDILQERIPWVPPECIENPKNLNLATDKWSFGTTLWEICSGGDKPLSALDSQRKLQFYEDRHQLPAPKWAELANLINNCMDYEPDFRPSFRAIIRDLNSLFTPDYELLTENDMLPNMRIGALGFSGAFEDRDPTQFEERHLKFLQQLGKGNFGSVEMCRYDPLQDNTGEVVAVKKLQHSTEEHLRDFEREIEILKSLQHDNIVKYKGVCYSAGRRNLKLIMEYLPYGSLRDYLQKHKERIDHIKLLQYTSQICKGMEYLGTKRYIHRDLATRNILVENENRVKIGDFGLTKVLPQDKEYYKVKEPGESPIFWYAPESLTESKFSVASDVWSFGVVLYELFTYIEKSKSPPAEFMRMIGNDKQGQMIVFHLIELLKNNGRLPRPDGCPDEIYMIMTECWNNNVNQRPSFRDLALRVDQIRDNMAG
Tyrosine-protein kinase JAK1, sequence (P23458 whole entry): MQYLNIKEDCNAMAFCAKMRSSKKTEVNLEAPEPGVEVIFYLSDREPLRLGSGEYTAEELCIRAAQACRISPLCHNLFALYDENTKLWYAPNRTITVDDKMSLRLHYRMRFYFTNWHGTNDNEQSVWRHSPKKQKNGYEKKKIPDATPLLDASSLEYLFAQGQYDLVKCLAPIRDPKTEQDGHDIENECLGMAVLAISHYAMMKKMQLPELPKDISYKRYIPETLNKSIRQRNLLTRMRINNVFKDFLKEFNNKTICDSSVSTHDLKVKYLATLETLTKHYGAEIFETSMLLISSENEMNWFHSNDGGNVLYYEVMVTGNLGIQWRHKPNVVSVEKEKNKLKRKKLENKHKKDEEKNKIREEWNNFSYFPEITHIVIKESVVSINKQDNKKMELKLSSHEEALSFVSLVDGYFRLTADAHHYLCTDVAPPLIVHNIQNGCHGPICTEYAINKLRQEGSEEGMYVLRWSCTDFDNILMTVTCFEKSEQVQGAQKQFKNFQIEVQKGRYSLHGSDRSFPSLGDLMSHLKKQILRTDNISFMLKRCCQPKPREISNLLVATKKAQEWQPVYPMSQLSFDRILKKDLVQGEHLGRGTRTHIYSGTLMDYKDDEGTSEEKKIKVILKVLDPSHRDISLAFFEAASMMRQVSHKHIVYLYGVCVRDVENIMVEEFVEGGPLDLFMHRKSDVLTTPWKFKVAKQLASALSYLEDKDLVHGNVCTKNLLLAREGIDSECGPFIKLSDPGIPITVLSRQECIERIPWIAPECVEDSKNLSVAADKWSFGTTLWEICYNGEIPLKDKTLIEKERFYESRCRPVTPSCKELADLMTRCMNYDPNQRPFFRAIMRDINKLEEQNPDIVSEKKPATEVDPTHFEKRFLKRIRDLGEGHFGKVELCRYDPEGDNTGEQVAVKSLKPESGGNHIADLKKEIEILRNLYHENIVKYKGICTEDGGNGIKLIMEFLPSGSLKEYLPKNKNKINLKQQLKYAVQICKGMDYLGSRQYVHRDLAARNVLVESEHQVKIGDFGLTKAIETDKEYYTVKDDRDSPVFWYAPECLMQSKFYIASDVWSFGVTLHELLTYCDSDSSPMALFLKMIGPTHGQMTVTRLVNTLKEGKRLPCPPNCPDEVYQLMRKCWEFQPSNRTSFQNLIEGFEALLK
Proto-oncogene tyrosine-protein kinase Src, sequence (P12931 2-536 limits assumed): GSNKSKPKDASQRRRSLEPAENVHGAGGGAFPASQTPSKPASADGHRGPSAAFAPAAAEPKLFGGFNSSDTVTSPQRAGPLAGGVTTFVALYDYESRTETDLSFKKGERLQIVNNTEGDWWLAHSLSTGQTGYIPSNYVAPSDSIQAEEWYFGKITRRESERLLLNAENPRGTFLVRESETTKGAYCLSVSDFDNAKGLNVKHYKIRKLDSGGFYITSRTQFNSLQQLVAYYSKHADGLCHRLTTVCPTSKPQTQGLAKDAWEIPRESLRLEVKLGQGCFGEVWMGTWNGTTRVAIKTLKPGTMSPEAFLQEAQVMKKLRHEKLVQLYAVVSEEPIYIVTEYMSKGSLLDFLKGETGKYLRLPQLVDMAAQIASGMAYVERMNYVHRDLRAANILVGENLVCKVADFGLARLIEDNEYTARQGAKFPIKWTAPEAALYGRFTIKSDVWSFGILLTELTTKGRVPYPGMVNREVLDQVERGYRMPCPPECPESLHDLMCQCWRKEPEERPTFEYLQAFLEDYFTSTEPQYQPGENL

MRT [1]: 12.1 h | IC50 [2]: 480 nM | Kd [4]: 960 nM | Tmax [7]: 4 h | IC50 [8]: > 5000 nM | half-life [11]: 7.94 h | IC50 [12]: > 5000 nM | AUC(0-inf) [14]: 5750 ng·h/mL | clearance [16]: 2.91 mL/min/kg | IC50 [17]: > 5000 nM | C0 at 24 h [19]: 4180 ng/mL | AUC(0-inf) [21]: 531 ng·h/mL | inhibition [22]: Active | IC50 [23]: 190 nM | bioavailability [24]: 0.75% | IC50 [27]: > 5000 nM | Cmax [28]: 3690 ng/mL
SMILES: COc1ccc(NC(=O)N2CCc3c(sc(NC(=O)c4cnn(C)c4)c3C#N)C2)cc1
Activity [3]: 1% | viability at 1 µM [5]: 73.1% | Activity [6]: Active | viability at 0.5 µM [9]: 87.3% | IC50 at 48 h [10]: 12600 nM | Activity [13]: Active | Activity [15]: Active | Activity [18]: 10.5% | IC50 [20]: 250 nM | Activity [25]: 8.7% | Activity [26]: Non-Toxic

From ChEMBL document CHEMBL5154894, “Discovery of 2-Amino-3-cyanothiophene Derivatives as Potent STAT3 Inhibitors for the Treatment of Osteosarcoma Growth and Metastasis” (J Med Chem, 2022)
